Test results reported in article PMC12845261, “Design, Synthesis, and Biological Evaluation of N-Acyl-Hydrazone-Linked Quinazolinone Derivatives with Antioxidant, Antimicrobial, and Anticancer Potential” (Pharmaceuticals, 2025).
Values after ≈ are worked out from the molar mass of the structure shown.

Key:
[1] = tested on: S. aureus ATCC 25923; assay: Microbial adhesion, crystal violet (MICMA); assay type: cell-based; settings: reference drug
Description: (§1) For the evaluation of antimicrobial activity, the following reference strains were used: S. aureus ATCC 25923, E. faecalis ATCC 29212, E. coli ATCC 25922, P. aeruginosa ATCC 27853 and C. albicans ATCC 10231.
(§2) Following quantitative analysis of antimicrobial activity, microbial adhesion was evaluated after methanol fixation and violet crystal staining (0.1%). The absorbance of the adhered biomass colored with violet crystal and resuspended in 33% acetic acid was measured at 490 nm.

[2] = tested on: E. coli ATCC 25922; assay: Microbial adhesion, crystal violet (MICMA); assay type: cell-based; settings: reference drug
Description: as §1, §2

[3] = tested on: P. aeruginosa ATCC 27853; assay: Microbial adhesion, crystal violet (MICMA); assay type: cell-based; settings: reference drug
Description: as §1, §2

[4] = tested on: E. faecalis ATCC 29212; assay: Microbial adhesion, crystal violet (MICMA); assay type: cell-based; settings: reference drug
Description: as §1, §2

[5] = tested on: S. aureus ATCC 25923; assay: Qualitative antimicrobial activity, adapted Kirby-Bauer (inhibition zone); assay type: cell-based; settings: reference drug at 100 μg/mL
Description: (§3) For the evaluation of antimicrobial activity, the following reference strains were used: S. aureus ATCC 25923, E. faecalis ATCC 29212, E. coli ATCC 25922, P. aeruginosa ATCC 27853 and C. albicans ATCC 10231. The microbial suspensions were prepared at a density of 1.5 × 10^8 CFU/mL, corresponding to the McFarland 0.5 nephelometric standard. These suspensions were obtained from 18–24 h cultures developed on solid media (Mueller-Hinton for bacteria, Sabouraud for yeast). Antimicrobial activity was assessed using an adapted Kirby-Bauer method according to CLSI (Clinical and Laboratory Standards Institute). In addition to the 10 mg/mL stock solutions prepared in DMSO for each compound, a solvent control was used. Each stock solution (10 μL) was distributed in spot on the medium inoculated with the interest strain. After measuring the diameter of the inhibition zone (IZD) around the spot (mm), the results were expressed as the mean ± standard deviation (SD) for each compound tested in duplicate.

[6] = tested on: E. coli ATCC 25922; assay: as above; assay type: cell-based; settings: reference drug at 100 μg/mL
Description: as §3

[7] = tested on: P. aeruginosa ATCC 27853; assay: as above; assay type: cell-based; settings: reference drug at 100 μg/mL
Description: as §3

[8] = tested on: E. faecalis ATCC 29212; assay: as above; assay type: cell-based; settings: reference drug at 100 μg/mL
Description: as §3

[9] = tested on: S. aureus ATCC 25923; assay: Quantitative antimicrobial activity, serial binary microdilution (MIC, IC50); assay type: cell-based; settings: Staphylococcus aureus, ATCC25923; S. aureus ATCC 25923; reference drug
Description: as §1
(§4) Quantitative analysis was performed using the method of serial binary microdilutions in liquid medium (Tryptone Soy Broth for bacteria and Sabouraud Broth for yeasts) in plates with 96 wells. Stock solutions of 10 mg/mL were made in DMSO, and the range of concentrations tested for each compound was 5000–0.16 μg/mL. Simultaneously, the DMSO control was carried out under the same working conditions. Each well was inoculated with 10 μL of microbial suspension, adjusted to a density of 1.5 × 10^8 CFU/mL prepared from 18 to 24 h cultures. After 24 h of incubation at 37 °C, microbial growth and multiplication were evaluated both macroscopically and spectrophotometrically at 620 nm to establish the MIC values. […] Blanks were made for each sample concentration, and the formula was applied: Microbial viability(%)=Asample−Ablank/Astrain control−Asterility control·100

[10] = tested on: E. coli ATCC 25922; assay: as above; assay type: cell-based; settings: Escherichia coli, ATCC25922; E. coli ATCC 25922; reference drug
Description: as §1, §4

[11] = tested on: P. aeruginosa ATCC 27853; assay: as above; assay type: cell-based; settings: Pseudomonas aeruginosa, ATCC27853, reference drug
Description: as §1, §4

[12] = tested on: E. faecalis ATCC 29212; assay: as above; assay type: cell-based; settings: Enterococcus faecalis, ATCC29212, reference drug
Description: as §1, §4

[13] = tested on: S. aureus ATCC 25923; assay: Microbicidal activity (MMC); assay type: cell-based; settings: reference drug
Description: (§5) For the evaluation of antimicrobial activity, the following reference strains were used: S. aureus ATCC 25923, E. faecalis ATCC 29212, E. coli ATCC 25922, P. aeruginosa ATCC 27853 and C. albicans ATCC 10231. To determine the MMCs, 5 μL of culture was taken from each well and distributed on solid medium. The plates were incubated for 20–24 h at 37 °C. The lowest concentration at which no microbial growth was observed was considered MMC.

[14] = tested on: E. coli ATCC 25922; assay: Microbicidal activity (MMC); assay type: cell-based; settings: reference drug
Description: as §5

[15] = tested on: P. aeruginosa ATCC 27853; assay: Microbicidal activity (MMC); assay type: cell-based; settings: reference drug
Description: as §5

[16] = tested on: E. faecalis ATCC 29212; assay: Microbicidal activity (MMC); assay type: cell-based; settings: reference drug
Description: as §5

[17] = tested on: HT-29 (human colorectal adenocarcinoma); assay: Cytotoxicity, MTT assay; assay type: cell-based; settings: 24 h, tested range 3.125 to 50 µM
Description: (§6) For the cytotoxicity screening of the N-acyl-hydrazone derivatives, three cell lines were employed: HT-29 (human colorectal adenocarcinoma), A431 (human epidermoid carcinoma), and VERO (non-tumoral African green monkey kidney epithelial cells). All cell lines were obtained from the American Type Culture Collection (ATCC, Manassas, VA, USA), and maintained in appropriate culture media as follows: HT-29 and A431 cells were cultured in Dulbecco’s Modified Eagle Medium (DMEM), while VERO cells were cultured in Minimum Essential Medium (MEM). Both culture media were supplemented with 10% fetal bovine serum (FBS) and 1% penicillin-streptomycin mix, to formulate the complete culture medium. All cell lines were incubated at 37 °C in a humidified atmosphere containing 5% CO2. […] For the cytotoxicity screening, cells were seeded into sterile 96-well plates at an initial density of 1 × 10^4 cells/well and allowed to adhere for 24 h. Subsequently, cells were treated with increasing concentrations (3.125 to 50 µM) of compounds 1a–1f and 2 for 24 h. In parallel, 5-fluorouracil (5-FU, Sigma Aldrich, St. Louis, MO, USA) was included as a reference drug and tested over the same concentration range under identical experimental conditions. […] For the experimental control, culture medium was refreshed at the time of treatment application. […] Louis, MO, USA). Briefly, the culture media were discarded from each well and replaced with a fresh solution of MTT (1 mg/mL). Plates were incubated for 4 h at 37 °C, and the resulting formazan crystals were solubilized with isopropanol. The absorbance was measured at 550 nm using the FlexStation III multimodal reader (Molecular Devices, San Jose, CA, USA). All experiments were performed in triplicate and repeated in three independent assays. Cell viability was calculated as a percentage relative to the untreated control using the formula Cell Viability (%) = (Abs treated/Abs control) × 100. Data were processed using GraphPad Prism 6.0 and presented as mean ± standard deviation (SD). Statistical analysis was performed using one-way analysis of variance (ANOVA) followed by Dunnett’s post hoc test for comparison with the untreated control group.

[18] = tested on: VERO (non-tumoral African green monkey kidney epithelial cells); assay: Cytotoxicity, MTT assay; assay type: cell-based; settings: 24 h
Description: as §6

[19] = tested on: C. albicans ATCC 10231; assay: Microbial adhesion, crystal violet (MICMA); assay type: cell-based; settings: reference drug
Description: as §1, §2

[20] = tested on: C. albicans ATCC 10231; assay: Qualitative antimicrobial activity, adapted Kirby-Bauer (inhibition zone); assay type: cell-based; settings: reference drug at 140 μg/mL
Description: as §3

[21] = tested on: C. albicans ATCC 10231; assay: Quantitative antimicrobial activity, serial binary microdilution (MIC, IC50); assay type: cell-based; settings: Candida albicans, ATCC10231, reference drug
Description: as §1, §4

[22] = tested on: C. albicans ATCC 10231; assay: Microbicidal activity (MMC); assay type: cell-based; settings: reference drug
Description: as §5

[23] = Total antioxidant capacity (TAC), DPPH method; settings: 30 min, 517 nm, compound stock 1 mg/mL in methanol, reference ascorbic acid TAC = 100%
Description: The total antioxidant capacity (TAC) was evaluated using diphenyl-1-picrylhydrazyl free radical (DPPH) method. The TAC value was determined in relation to the antioxidant capacity of the reference (ascorbic acid, TAC = 100%). […] The maximum value was recorded for 1c (~45%), followed by 1f and 1a (~43%), while the minimum for 1e (~19%).
In this study, the TAC values were obtained using the most-known DPPH method, in which the intense violet colour of the free radical solution is decreasing. Stock solutions of compounds 1a–1f and 2 were prepared in absolute methanol at a concentration of 1 mg/mL. A stock solution of 2,2-diphenyl-1-picrylhydrazyl free radical was obtained in the same solvent, at a concentration of 2 × 10^−4 M. To 1.8 mL of DPPH solution was added 0.2 mL of each solution of the compounds 1a–1f and 2 and the mixture was left in the dark for 30 min, followed by measurements of the absorbance at 517 nm. The following equation was used to calculate TAC: TAC%=Abs0 min−Abs30 min/Abs0min·100 where Abs0 min refers to the initial absorbance of the DPPH free radical solution, and Abs 30 min refers to the absorbance of the solution of DPPH and the added compound after 30 min. Ascorbic acid was used as a reference.

O=C(O)c1cn(C2CC2)c2cc(N3CCNCC3)c(F)cc2c1=O [Ciprofloxacin, ciprofloxacin, reference compound]
MICMA [1]: 0.39 µg/mL | MICMA [2]: <0.10 µg/mL | MICMA [3]: 0.39 µg/mL | MICMA [4]: 0.78 µg/mL | IZD (100 μg/mL, mm) [5]: 17.33 ± 0.58 mm | IZD (100 μg/mL, mm) [6]: 34.00 ± 2.00 mm | IZD (100 μg/mL, mm) [7]: 15.33 ± 0.58 mm | IZD (100 μg/mL, mm) [8]: 8.33 ± 0.58 mm | MIC [9]: 0.78 µg/mL (≈ 2.35 µM) | MIC [10]: 0.2 µg/mL (≈ 0.604 µM) | MIC [11]: 0.39 µg/mL (≈ 1.18 µM) | MIC [12]: 0.78 µg/mL (≈ 2.35 µM) | MMC [13]: 1.56 µg/mL | MMC [14]: 0.78 µg/mL | MMC [15]: 0.39 µg/mL | MMC [16]: 6.25 µg/mL

O=c1[nH]cc(F)c(=O)[nH]1 [Compound 5-FU, 5-fluorouracil, reference compound]
IC50 [17]: not reached within the tested concentration range | Maximum reduction in viability ([18]; 50 µM): approximately 25% | IC50 ([18]; tested range 3.125 to 50 µM): not reached within the tested range

CC(=O)N1CCN(c2ccc(OCC3COC(Cn4ccnc4)(c4ccc(Cl)cc4Cl)O3)cc2)CC1 (stereo not drawn) [Ketoconazole, ketoconazole, reference compound]
MICMA [19]: 0.27 µg/mL | IZD (140 μg/mL, mm) [20]: 6.5 ± 0.71 mm | MIC [21]: 8.75 µg/mL (≈ 16.5 µM) | MMC [22]: 35 µg/mL

O=C1O[C@H]([C@@H](O)CO)C(O)=C1O [ascorbic acid, reference compound]
TAC (%) [23]: 100%
